# According to US12209087B2, “AKT1 modulators” (Alterome Therapeutics, Inc., priority 2022, dated 2025):
# Biological target: T1, full length AKT E17K (Homo sapiens, UniProt P31749, E17K)
# T1 construct: host or cells: HEK-293 (ATCC CRL-1573)
# Test: NanoBRET Target Engagement (TE) Assay
# Type: cell-based
# Conditions: competitive displacement of tracer in cells, read-out: AKT1 E17K IC50
# Method in brief: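 Compound and tracer incubated 2 h before luminescence at donor 450 nm and acceptor 600 nm, with extracellular signal inhibited. EC50 by sigmoidal variable-slope regression.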
# T1 sequence (P31749 whole entry E17K): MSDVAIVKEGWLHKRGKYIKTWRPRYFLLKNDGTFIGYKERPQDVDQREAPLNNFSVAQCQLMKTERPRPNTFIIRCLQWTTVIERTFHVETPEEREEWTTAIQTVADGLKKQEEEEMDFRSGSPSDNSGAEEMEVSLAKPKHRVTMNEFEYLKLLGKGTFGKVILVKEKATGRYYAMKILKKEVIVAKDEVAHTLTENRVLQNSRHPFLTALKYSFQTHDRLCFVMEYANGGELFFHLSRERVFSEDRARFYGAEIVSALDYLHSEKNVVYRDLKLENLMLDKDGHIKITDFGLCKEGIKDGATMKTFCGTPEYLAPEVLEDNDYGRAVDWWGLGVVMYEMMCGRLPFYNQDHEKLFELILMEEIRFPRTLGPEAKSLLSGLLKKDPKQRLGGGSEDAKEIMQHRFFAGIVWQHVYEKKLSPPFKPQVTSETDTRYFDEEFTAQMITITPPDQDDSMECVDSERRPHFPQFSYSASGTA
row,Compound,IC50
1,"N#Cc1nccc(NC2CCN(Cc3ccc(-n4c(-c5cccnc5N)nc5ccc(-c6cnc(F)cn6)nc54)cc3)CC2)n1 [Example 605, 4-((1-(4-(2-(2-Aminopyridin-3-yl)-5-(5-fluoropyrazin-2-yl)-3H-imidazo[4,5-b]pyridin-3-yl)benzyl)piperidin-4-yl)amino)pyrimidine-2-carbonitrile]",< 15 nM
2,"CC1(Nc2ccnc(C#N)n2)CCN(Cc2ccc(-n3c(-c4cccnc4N)nc4cccnc43)cc2)CC1 [Example 392, 4-((1-(4-(2-(2-Aminopyridin-3-yl)-3H-imidazo[4,5-b]pyridin-3-yl)benzyl)-4-methylpiperidin-4-yl)amino)pyrimidine-2-carbonitrile]",60 to 600 nM
3,"CN(C)c1cccc(-c2ccc3nc(-c4cccnc4N)n(-c4ccc(CN5CCC(Nc6ccnc(C#N)n6)CC5)cc4)c3n2)c1 [Example 521, 4-((1-(4-(2-(2-Aminopyridin-3-yl)-5-(3-(dimethylamino)phenyl)-3H-imidazo[4,5-b]pyridin-3-yl)benzyl)piperidin-4-yl)amino)pyrimidine-2-carbonitrile]",< 15 nM
4,"N#Cc1nccc(NC2CCN(Cc3ccc(-n4c(-c5cccnc5N)nc5ccc(Br)nc54)cc3)CC2)n1 [Example 485, 4-((1-(4-(2-(2-Aminopyridin-3-yl)-5-bromo-3H-imidazo[4,5-b]pyridin-3-yl)benzyl)piperidin-4-yl)amino)pyrimidine-2-carbonitrile]",< 15 nM
5,"N#Cc1nccc(NC2CCN(Cc3ccc(-n4c(-c5cccnc5N)nc5ccc(C6COC6)nc54)cc3)CC2)n1 [Example 420, 4-((1-(4-(2-(2-Aminopyridin-3-yl)-5-(oxetan-3-yl)-3H-imidazo[4,5-h]pyridin-3-yl)benzyl)piperidin-4-yl)amino)pyrimidine-2-carbonitrile]",< 15 nM
6,"N#Cc1nccc(NC2CCN(Cc3ccc(-n4c(-c5cccnc5N)nc5ccc(-c6cnn(C7CC7)n6)nc54)cc3)CC2)n1 [Example 615, 4-((1-(4-(2-(2-Aminopyridin-3-yl)-5-(2-cyclopropyl-2H-1,2,3-triazol-4-yl)-3H-imidazo[4,5-b]pyridin-3-yl)benzyl)piperidin-4-yl)amino)pyrimidine-2-carbonitrile]",< 15 nM
7,"N#Cc1nccc(N2C[C@H]3CN(Cc4ccc(-n5c(-c6cccnc6N)nc6ccc(-c7ccc(F)cc7)nc65)cc4)C[C@H]3C2)n1 [Example 449, 4-((3aR,6aS)-5-(4-(2-(2-Aminopyridin-3-yl)-5-(4-fluorophenyl)-3H-imidazo[4,5-b]pyridin-3-yl)benzyl)hexahydropyrrolo[3,4-c]pyrrol-2(1H)-yl)pyrimidine-2-carbonitrile]",15 to 60 nM
8,"N#Cc1ccnc(NC2CCN(Cc3ccc(-n4c(-c5cccnc5N)nc5ccc(-c6ccc(F)cc6)nc54)cc3)CC2)n1 [Example 352, 2-((1-(4-(2-(2-Aminopyridin-3-yl)-5-(4-fluorophenyl)-3H-imidazo[4,5-b]pyridin-3-yl)benzyl)piperidin-4-yl)amino)pyrimidine-4-carbonitrile]",15 to 60 nM
9,"N#Cc1nccc(NC2CCN(Cc3ccc(-n4c(-c5cccnc5N)nc5ccc(-c6cccc(Cl)c6)nc54)cc3)CC2)n1 [Example 353, 4-((1-(4-(2-(2-Aminopyridin-3-yl)-5-(3-chlorophenyl)-3H-imidazo[4,5-b]pyridin-3-yl)benzyl)piperidin-4-yl)amino)pyrimidine-2-carbonitrile]",60 to 600 nM
10,"CC(C)n1cc(-c2ccc3nc(-c4cccnc4N)n(-c4ccc(CN5CCC(Nc6ccnc(C#N)n6)CC5)cc4)c3n2)cn1 [Example 479, 4-((1-(4-(2-(2-Aminopyridin-3-yl)-5-(1-isopropyl-1H-pyrazol-4-yl)-3H-imidazo[4,5-b]pyridin-3-yl)benzyl)piperidin-4-yl)amino)pyrimidine-2-carbonitrile]",< 15 nM
11,"N#Cc1ccnc(NC2CCN(Cc3ccc(-n4c(-c5cccnc5N)nc5ccc(-c6ccc(Cl)cc6)nc54)cc3)CC2)n1 [Example 371, 2-((1-(4-(2-(2-Aminopyridin-3-yl)-5-(4-chlorophenyl)-3H-imidazo[4,5-b]pyridin-3-yl)benzyl)piperidin-4-yl)amino)pyrimidine-4-carbonitrile]",60 to 600 nM
12,"N#Cc1nccc(N2CCN(Cc3ccc(-n4c(-c5cccnc5N)nc5ccc(-c6ncccc6C#N)nc54)cc3)CC2)n1 [Example 407, 4-(4-(4-(2-(2-Aminopyridin-3-yl)-5-(3-cyanopyridin-2-yl)-3H-imidazo[4,5-b]pyridin-3-yl)benzyl)piperazin-1-yl)pyrimidine-2-carbonitrile]",< 15 nM
13,"N#Cc1cc(-c2ccc3nc(-c4cccnc4N)n(-c4ccc(CN5CCC(Nc6ccnc(C#N)n6)CC5)cc4)c3n2)ccn1 [Example 429, 4-((1-(4-(2-(2-Aminopyridin-3-yl)-5-(2-cyanopyridin-4-yl)-3H-imidazo[4,5-b]pyridin-3-yl)benzyl)piperidin-4-yl)amino)pyrimidine-2-carbonitrile]",< 15 nM
14,"[2H]C([2H])([2H])N(c1ccnc(C#N)n1)C1CCN(C([2H])([2H])c2ccc(-n3c(-c4cccnc4N)nc4ccc(-c5ccc(F)cc5)nc43)cc2)CC1 [Example 442, 4-((1-((4-(2-(2-Aminopyridin-3-yl)-5-(4-fluorophenyl)-3H-imidazo[4,5-b]pyridin-3-yl)phenyl)methyl-d2)piperidin-4-yl)(methyl-d3)amino)pyrimidine-2-carbonitrile]",< 15 nM
15,"CN(c1ccnc(C#N)n1)C1CCN(Cc2ccc(-n3c(-c4cccnc4N)nc4ccc(-c5ccc(F)cc5)nc43)cc2)CC1 [Example 541, 4-((1-(4-(2-(2-aminopyridin-3-yl)-5-(4-fluorophenyl)-3H-imidazo[4,5-b]pyridin-3-yl)benzyl)piperidin-4-yl)(methyl)amino)pyrimidine-2-carbonitrile]",< 15 nM
16,"[2H]C([2H])(c1ccc(-n2c(-c3cccnc3N)nc3cccnc32)cc1)N1CCC(Nc2ccnc(C#N)n2)CC1 [Example 385, 4-((1-((4-(2-(2-Aminopyridin-3-yl)-3H-imidazo[4,5-b]pyridin-3-yl)phenyl)methyl-d2)piperidin-4-yl)amino)pyrimidine-2-carbonitrile]",15 to 60 nM

# Same assay, conditions: competitive tracer displacement in living cells, read-out: AKT1 E17K IC50
row,Compound,IC50
1,"N#Cc1cc(NC2CCN(Cc3ccc(-n4c(-c5cccnc5N)nc5ccc(N6CCOCC6)nc54)cc3)CC2)ncn1 [Example 241, 6-((1-(4-(2-(2-Aminopyridin-3-yl)-5-morpholino-3H-imidazo[4,5-b]pyridin-3-yl)benzyl)piperidin-4-yl)amino)pyrimidine-4-carbonitrile]",15 to 60 nM
2,"N#Cc1cncc(C(=O)N2CCN(Cc3ccc(-n4c(-c5cccnc5N)nc5ccc(-c6ccccc6)nc54)cc3)CC2)c1 [Example 139, 5-(4-(4-(2-(2-Aminopyridin-3-yl)-5-phenyl-3H-imidazo[4,5-b]pyridin-3-yl)benzyl)piperazine-1-carbonyl)nicotinonitrile]",600 to 10000 nM
3,"N#Cc1cc(N2CCN(Cc3ccc(-n4c(-c5cccnc5N)nc5ccc(-c6ccccc6)nc54)cc3)CC2)ccn1 [Example 82, 4-(4-(4-(2-(2-Aminopyridin-3-yl)-5-phenyl-3H-imidazo[4,5-b]pyridin-3-yl)benzyl)piperazin-1-yl)picolinonitrile]",15 to 60 nM
4,"N#Cc1cccc(C(=O)NC2CCN(Cc3ccc(-n4c(-c5cccnc5N)nc5cccnc54)cc3)CC2)n1 [Example 30, N-(1-(4-(2-(2-Aminopyridin-3-yl)-3H-imidazo[4,5-b]pyridin-3-yl)benzyl)piperidin-4-yl)-6-cyanopicolinamide]",600 to 10000 nM
5,"N#Cc1cc(N2CCN(Cc3ccc(-n4c(-c5cccnc5N)nc5ccc(-c6ccccc6)nc54)cc3)CC2)ncn1 [Example 78, 6-(4-(4-(2-(2-Aminopyridin-3-yl)-5-phenyl-3H-imidazo[4,5-b]pyridin-3-yl)benzyl)piperazin-1-yl)pyrimidine-4-carbonitrile]",< 15 nM
6,"N#Cc1ccnc(N2CCN(Cc3ccc(-n4c(-c5cccnc5N)nc5ccc(-c6cccc(Cl)c6)nc54)cc3)CC2)n1 [Example 297, 2-(4-(4-(2-(2-Aminopyridin-3-yl)-5-(3-chlorophenyl)-3H-imidazo[4,5-b]pyridin-3-yl)benzyl)piperazin-1-yl)pyrimidine-4-carbonitrile]",60 to 600 nM
7,"N#Cc1ncnc(N2C3CCC2CN(Cc2ccc(-n4c(-c5cccnc5N)nc5ccc(-c6ccccc6)nc54)cc2)C3)n1 [Example 270, 4-(3-(4-(2-(2-Aminopyridin-3-yl)-5-phenyl-3H-imidazo[4,5-b]pyridin-3-yl)benzyl)-3,8-diazabicyclo[3.2.1]octan-8-yl)-1,3,5-triazine-2-carbonitrile]",60 to 600 nM
8,"C[C@H]1CN(Cc2ccc(-n3c(-c4cccnc4N)nc4ccc(-c5ccccc5)nc43)cc2)CCN1c1cc(C#N)ncn1 [Example 208, (S)-6-(4-(4-(2-(2-Aminopyridin-3-yl)-5-phenyl-3H-imidazo[4,5-b]pyridin-3-yl)benzyl)-2-methylpiperazin-1-yl)pyrimidine-4-carbonitrile]",60 to 600 nM
9,"CC(=O)Nc1cccc(-c2ccc3nc(-c4cccnc4N)n(-c4ccc(CN5CCN(c6cc(C#N)ncn6)CC5)cc4)c3n2)c1 [Example 41, N-(3-(2-(2-Aminopyridin-3-yl)-3-(4-((4-(6-cyanopyrimidin-4-yl)piperazin-1-yl)methyl)phenyl)-3H-imidazo[4,5-b]pyridin-5-yl)phenyl)acetamide]",< 15 nM
10,"N#Cc1cc(NCc2ccc(-n3c(-c4cccnc4N)nc4cccnc43)cc2)ncn1 [Example 135, 6-((4-(2-(2-aminopyridin-3-yl)-3H-imidazo[4,5-b]pyridin-3-yl)benzyl)amino)pyrimidine-4-carbonitrile]",600 to 10000 nM
11,"N#Cc1cc(C(=O)NC2CCN(Cc3ccc(-n4c(-c5cccnc5N)nc5ccc(-c6ccccc6)nc54)cc3)CC2)ncn1 [Example 117, N-(1-(4-(2-(2-aminopyridin-3-yl)-5-phenyl-3H-imidazo[4,5-b]pyridin-3-yl)benzyl)piperidin-4-yl)-6-cyanopyrimidine-4-carboxamide]",15 to 60 nM
12,"N#Cc1cnccc1C(=O)NCc1ccc(-n2c(-c3cccnc3N)nc3cccnc32)cc1 [Example 99, N-(4-(2-(2-Aminopyridin-3-yl)-3H-imidazo[4,5-b]pyridin-3-yl)benzyl)-3-cyanoisonicotinamide]",600 to 10000 nM
